Experimental data from patent US9744186B2 (priority 2012, dated 2017).
Read-outs that look alike come from different tables or passages of the source.

Columns and labels:
[1] = system: HCV luciferase replicon; experiment: Isobologram analysis of synergism with other anti-viral compounds; format: cell-based, hepatitis C virus (HCV)
Description: Isobologram analysis was carried to assess the potential synergistic interaction of representative disclosed compounds with representative antiviral compounds. The isobolgram analysis was conducted as previously described by Chou and Talalay (see Chou T. C. and Talalay P. “Analysis of combined drug effects: a new look at a very old problem.” Trends Pharmacol Sci 1983; 4:450-4; and Chou T. C. and Talalay P. “Quantitative analysis of dose-effect relationships: the combined effects of multiple drugs or enzyme inhibitors.” Adv Enzyme Regul 1984; 22:27-55). The definitions of synergism are those described by Chou (see Chou, T. C. (2006) Theoretical basis, experimental design, and computerized simulation of synergism and antagonism in drug combination studies. Pharmacol Rev. 58(3):621-81).
Data for the isobologram analysis are shown in FIGS. 12-15, and shown in each figure are the test compound concentrations and corresponding combination index.

[2] = system: HCV luciferase replicon; experiment: HCV luciferase replicon inhibition in the presence of carboxylesterase inhibitors (benzil or BNPP); format: cell-based; settings: Hepatitis C virus, 48 h
Description: The cells were counted using a hemocytometer, and then diluted to 1×10^5 cells/mL in DMEM with 10% FBS and […] G415. 100 μL of the cells (10,000 cells) were plated per well in a white-walled 96-well plate according to the template on the following page.
Treating the cells: Media (DMEM with 2% FBS) was pre-warmed to 37° C. Stock solutions (100 mM) of Benzil and BNPP were diluted in DMEM with 2% FBS to 100 μM. […] The cells were returned to 37° C. for 1 h. […] The 1.0 mM dilution of GCB or GTB in DMEM+2% FBS+100 μM Benzil or BNPP was serially diluted in DMEM with 2% FBS, 0.5% DMSO, 100 μM benzil or BNPP. At the end of the 1 h incubation, the 96-well plate with cells plated as above was removed from the 37° C. incubator, and 50 μL media diluted test drug and 100 μM of benzil or BNPP was added to each well. The plates were gently rocked to mix the media. Also included were conditions with inhibitors alone (DMEM+2% FBS+0.5% DMSO+100 μM benzil or BNPP) and media alone (DMEM+2% FBS+0.5% DMSO) in triplicate. The plates were returned to 37° C. for 48 h.

[3] = TC50 MTS assay: RPK9 cells (deficient in deoxycytidine kinase); format: cell-based; settings: human, 48 h drug treatment, dCK-deficient cells
Description: Plating Cells: The Huh7, HEPG2, HEK293, MCF-7, PK9, RPK9, or BxPC3 cells were passaged when they were about 70% confluent. The cells were counted using a hemocytometer, and then diluted cells to 0.5×10^5 cells per mL in DMEM+10% FBS. 100 µL of the cells (5,000 cells) were plated per well in a clear 96-well plate. The cells were allowed to attach for 24 hours at 37° C.
Treating the cells: Pre-warm the DMEM media without phenol red+2% FBS media to 37° C. […] This will bring the final DMSO concentration to 0.5%. Use these 0.5 mM dilutions to further serially the drugs in DMEM without phenol red+2% FBS+0.5% DMSO. This will keep the concentration of DMSO in each condition identical. Remove the 96-well plate from the 37° C. incubator. Replace the media on the plate with the dilutions of the drugs. Stagger these treatments by 1 h and write the treatment time on each set of plates. Return to 37° C. for 48 h or 96 h as indicated.
MTS Assay: The reagents from CellTiter 96 kit (Promega Corporation, Madison, Wis.) were thawed at room temperature in the dark for 1 h. The 96-well plate was removed from the 37° C. incubator at 48 h after drug treatment. […] The absorbance of each well at 490 nm and 650 nm was determined using the Flexstation 3 microplate reader in endpoint mode every hour for 3 h. The solutions in the wells were mixed prior to each reading. […]

## COc1cc(C(=O)Nc2ccn([C@@H]3O[C@H](CO)[C@@H](O)C3(F)F)c(=O)n2)cc(OC)c1OC [GTB, N^4-(3,4,5-Trimethoxybenzoyl)gemcitabine]
[1]; Compound 2 = BMS-790052
  Interaction Type with BMS-790052: moderate synergism
[1]; Compound 2 = PSI-7977
  Interaction Type with PSI-7977: moderate antagonism
[2]; 100 μM BNPP, read-out: IC50 (nM) +BNPP
  IC50: 81 nM
[2]; 100 μM benzil, read-out: IC50 (nM) +Benzil
  IC50: 125 nM
[2]; no carboxylesterase inhibitor, read-out: IC50 (nM) −Benzil −BNPP
  IC50: 49 nM
[3]
  CC50 at 48 h: > 500 µM
